Here are results for 7 molecules from patent US8637670B2, “Imidazo [4,5-C]quinoline derivatives and their use in the treatment of tumors and/or inflammation” (Piramal Enterprises Limited, priority 2009, dated 2014).

Bounds are passed on as bounds.

One assay concerns PC3. The experiment in a line: Cytotoxicity, propidium iodide assay, PC3. It counts as cell-based. As to conditions: Homo sapiens, PC-3; Prostate, PC3, 48 hours treatment; read-out: IC50, C2a (PC3). The protocol:
(§1) The assay was designed as in the reference, Anticancer Drugs, 2002, 13, 1-8, the disclosure of which is incorporated by reference for the teaching of the assay.
(§2) Cells from cell lines as mentioned in the table given below were seeded at a density of 3000 cells/well in a white opaque 96-well plate. Following incubation at 37° C./5% CO2 for a period of 18-24 hours, the cells were treated with various concentrations (stock solution was prepared in DMSO and subsequent dilutions were made in media as per ATCC guidelines) of the compounds of Example 1-40 was for a period of 48 hours. At the end of treatment, the spent culture medium was discarded, the cells were washed with 1×PBS and 200 μl of 7 μg/ml propidium iodide was added to each well. The plates were frozen at −70° C. for at least 24 hours. For analysis, the plates were brought to RT, allowed to thaw and were read in PoleStar fluorimeter with the fluorescence setting. The percentage of viable cells in the non-treated set of wells was considered to be 100 and the percentage viability following treatment was calculated accordingly. IC50 values were calculated from graphs plotted using these percentages. Table 4 depicts the IC50 values of compounds of Example 1-40 in individual cell lines.
(§3) The abbreviations for the Cell Lines as used in Table 4 are: […]

For a further assay, the system named is OVCAR 3. The assay is described as follows: Cytotoxicity, propidium iodide assay, OVCAR 3. As to conditions: Homo sapiens; Ovarian, OVCAR 3, 48 hours treatment; read-out: IC50, C3b (OVCAR 3). It counts as cell-based. The protocol:
as §1, §2, §3

The test system of a further assay is U 87 MG. The experiment in a line: Cytotoxicity, propidium iodide assay, U 87 MG. As to conditions: Homo sapiens, Glioblastoma, 48 hours treatment, read-out: IC50, C7b (U 87 MG). It counts as cell-based. The protocol:
as §1, §2, §3

A further assay has as its system IL-6. The experiment in a line: Human monocyte assay, LPS-stimulated IL-6 (ELISA). It counts as cell-based. As to conditions: human monocytes, 1 μg/ml LPS, 5 hours. The protocol: The assay was designed as in the reference, Physiol. Res., 2003, 52, 593-598, the disclosure of which is incorporated by reference for the teaching of the assay.
Peripheral blood mononuclear cells (hPBMC) were harvested from human blood and suspended in RPMI 1640 culture medium containing 10% FCS, 100 U/mL penicillin and […] streptomycin (assay medium). Monocytes in the hPBMCs were counted using a Coulter Counter following which the cells were resuspended at 2×10^5 monocytes/mL. A cell suspension containing 2×10^4 monocytes was aliquoted per well of a 96-well plate. Subsequently, the hPBMCs were incubated for 4-5 hours at 37° C. under 5% CO2 (During the incubation, the monocytes adhered to the bottom of 96-well plastic culture plate). Following the incubation, the non-adherent lymphocytes were washed with assay medium and the adherent monocytes re-fed with assay medium. After a 48-hour incubation period (37° C., 5% CO2), monocytes were pretreated with various concentrations of compounds of Example 1-40 (prepared in DMSO) or vehicle (0.5% DMSO) for 30 minutes and stimulated with 1 μg/ml LPS (Escherchia coli 0111:B4, Sigma Chemical Co., St. Louis, Mo.). The incubation was continued for 5 hours at 37° C., 5% CO2. Supernatants were harvested, assayed for IL-6 and TNF-α by ELISA as described by the manufacturer (BD Biosciences, USA). Dexamethasone (10 μM) was used as standard for this assay. The 50% inhibitory concentration (IC50) values were calculated by a nonlinear regression method. In all experiments, a parallel plate was run to ascertain the toxicity of compounds of Example 1-40. The toxicity was determined using the MTS assay as described in Am. J. Physiol. Cell Physiol., 2003, 285, C813-C822.
A general note: In an ELISA, binding on a coated surface is turned into a signal by an enzyme label.

A further assay has as its system HCT116. The experiment in a line: Cytotoxicity, propidium iodide assay, HCT116. Format: cell-based. As to conditions: Homo sapiens, HCT-116; Colon, HCT116, 48 hours treatment; read-out: IC50, C4a (HCT116). The protocol:
as §1, §2, §3

For the next assay, the system named is U 373. The experiment in a line: Cytotoxicity, propidium iodide assay, U 373. As to conditions: Homo sapiens, U373 MG; Glioblastoma, U 373, 48 hours treatment; read-out: IC50, C7a (U 373). Format: cell-based. The protocol: as §1, §2, §3
Another assay relates to A549. The assay is described as follows: Cytotoxicity, propidium iodide assay, A549. Format: cell-based. As to conditions: Homo sapiens; Lung, A549, 48 hours treatment; read-out: IC50, C1a (A549). The protocol: as §1, §2, §3
The subject of a further assay is H460. The assay is described as follows: Cytotoxicity, propidium iodide assay, H460. It counts as cell-based. As to conditions: Homo sapiens, NCI-H460; Lung, H460, 48 hours treatment; read-out: IC50, C1b (H460). The protocol:
as §1, §2, §3

In a further assay the test system is PANC 1. The experiment in a line: Cytotoxicity, propidium iodide assay, PANC 1. It counts as cell-based. As to conditions: Homo sapiens; Pancreatic, PANC 1, 48 hours treatment; read-out: IC50, C5a (PANC 1). The protocol:
as §1, §2, §3

The subject of a further assay is A2780. The experiment in a line: Cytotoxicity, propidium iodide assay, A2780. It counts as cell-based. As to conditions: Homo sapiens; Ovarian, A2780, 48 hours treatment; read-out: IC50, C3a (A2780). The protocol: as §1, §2, §3
A further assay deals with T1, PI3Kα kinase (Homo sapiens, UniProt P42336).
T1 construct: purchased Millipore, USA
T1 sequence (P42336 whole entry): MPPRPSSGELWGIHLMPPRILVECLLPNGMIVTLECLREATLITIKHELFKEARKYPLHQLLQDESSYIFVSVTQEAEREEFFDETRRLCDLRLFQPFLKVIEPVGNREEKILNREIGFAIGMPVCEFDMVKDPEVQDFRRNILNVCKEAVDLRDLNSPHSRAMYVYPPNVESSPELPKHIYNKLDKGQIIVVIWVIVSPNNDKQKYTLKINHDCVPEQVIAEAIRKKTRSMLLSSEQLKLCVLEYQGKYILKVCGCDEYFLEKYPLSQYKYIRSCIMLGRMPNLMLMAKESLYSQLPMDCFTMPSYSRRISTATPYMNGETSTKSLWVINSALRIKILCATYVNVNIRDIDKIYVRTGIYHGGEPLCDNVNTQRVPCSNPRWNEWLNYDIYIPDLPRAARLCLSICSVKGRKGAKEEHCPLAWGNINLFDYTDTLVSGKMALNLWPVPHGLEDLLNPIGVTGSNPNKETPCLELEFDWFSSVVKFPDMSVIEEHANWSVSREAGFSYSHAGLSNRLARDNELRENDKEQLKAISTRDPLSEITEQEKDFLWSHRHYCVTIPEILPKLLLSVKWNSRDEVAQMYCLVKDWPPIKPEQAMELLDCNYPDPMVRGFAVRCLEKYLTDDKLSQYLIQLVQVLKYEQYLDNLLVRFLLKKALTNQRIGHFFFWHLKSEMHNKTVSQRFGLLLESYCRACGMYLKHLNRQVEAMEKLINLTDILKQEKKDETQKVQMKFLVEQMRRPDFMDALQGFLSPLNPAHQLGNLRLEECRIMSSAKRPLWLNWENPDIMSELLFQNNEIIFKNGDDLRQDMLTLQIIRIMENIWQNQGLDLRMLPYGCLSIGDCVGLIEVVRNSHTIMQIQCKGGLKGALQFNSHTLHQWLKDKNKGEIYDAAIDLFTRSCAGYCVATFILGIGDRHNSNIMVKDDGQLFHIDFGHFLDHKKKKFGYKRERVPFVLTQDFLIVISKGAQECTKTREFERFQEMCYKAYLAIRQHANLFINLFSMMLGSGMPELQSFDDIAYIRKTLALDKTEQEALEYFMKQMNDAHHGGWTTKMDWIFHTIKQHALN
T1 sequence (P27986 whole entry partner): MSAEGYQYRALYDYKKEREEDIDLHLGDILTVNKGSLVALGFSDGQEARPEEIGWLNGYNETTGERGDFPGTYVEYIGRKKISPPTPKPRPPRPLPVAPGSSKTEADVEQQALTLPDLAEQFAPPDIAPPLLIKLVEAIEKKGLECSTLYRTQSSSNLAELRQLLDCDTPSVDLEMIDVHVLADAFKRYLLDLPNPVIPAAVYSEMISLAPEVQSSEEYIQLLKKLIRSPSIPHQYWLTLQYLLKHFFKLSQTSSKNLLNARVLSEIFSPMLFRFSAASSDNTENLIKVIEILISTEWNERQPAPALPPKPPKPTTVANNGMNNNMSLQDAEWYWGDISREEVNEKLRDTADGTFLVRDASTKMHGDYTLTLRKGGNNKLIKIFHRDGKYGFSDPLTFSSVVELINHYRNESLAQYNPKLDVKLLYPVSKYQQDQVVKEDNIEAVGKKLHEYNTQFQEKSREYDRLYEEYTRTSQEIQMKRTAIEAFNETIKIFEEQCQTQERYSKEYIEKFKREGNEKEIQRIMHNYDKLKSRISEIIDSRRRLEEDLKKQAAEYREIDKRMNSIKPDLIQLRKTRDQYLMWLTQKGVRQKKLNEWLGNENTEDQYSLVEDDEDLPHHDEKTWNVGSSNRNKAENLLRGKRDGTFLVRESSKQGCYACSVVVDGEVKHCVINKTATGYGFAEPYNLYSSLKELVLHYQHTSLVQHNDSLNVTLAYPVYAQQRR
The assay is described as follows: PI3Kα assay (32P incorporation into phosphatidylinositol, TLC densitometry). Format: biochemical. As to conditions: At 100 nM. The protocol:
The assay was designed as in the reference, Cell, 2006, 125, 733-47 (Supplemental Data), the disclosure of which is incorporated by reference for the teaching of the assay.
The kinase reaction was carried out in a 25 μL volume in a 1.5 mL microcentrifuge tube. The reaction mixture consisted of kinase buffer (10 mM Hepes, pH 7.5, 50 mM MgCl2), 20 ng PI3Kα kinase (Millipore, USA), 12.5 μg phosphatidylinositol (PI), 10 μM ATP and 1 μCi ^32γ P dATP. Compounds of Example 1-40 were added at concentrations (stock solution was prepared in DMSO and subsequent dilutions were made in kinase buffer) as mentioned in the table. The reaction mixture was incubated at 30° C. for 20 minutes and was terminated by adding 1:1 mixture of MeOH and chloroform. The tube contents were mixed on a vortex mixer and centrifuged at 10000 rpm for 2 minutes. 10 μL of the organic (lower) phase was spotted on to a TLC plate (silica, mobile phase: n-propanol and 2 M glacial acetic acid in 65:35 ratio). The plates were dried and exposed to an X-ray film. The bands appearing as a result of ^32γ P incorporation in PI were quantitated using the QuantityOne (BioRad, USA) densitometry program. PI-103 (Calbiochem, USA) was used as a standard.

As for `Cc1ccc([N+](=O)[O-])cc1S(=O)(=O)n1c(=O)n(-c2ccc(C(C)(C)C#N)cc2)c2c3cc(Br)ccc3ncc21` [Example 4, 2-(4-(8-Bromo-3-(2-methyl-5-nitrophenylsulfonyl)-2-oxo-2,3-dihydro-1H-imidazo[4,5-c]quinolin-1-yl)phenyl)-2-methylpropanenitrile], the half-maximal inhibitory concentration (IC50) in the assay on PC3 is 1000 to 3000 nM; in the assay with OVCAR 3, > 3000 nM; in the assay with U 87 MG, 1000 to 3000 nM; in the assay with IL-6, 1000 to 10000 nM; in the assay with HCT116, > 3000 nM; in the assay with U 373, > 3000 nM. The concentration for half-maximal inhibition (IC50) in the assay with A549 and in the assay with H460 was 1000 to 3000 nM each time.
Regarding `CC(C)(C#N)c1ccc(-n2c(=O)n(S(=O)(=O)c3cccs3)c3cnc4ccc(Br)cc4c32)cc1` [Example 9, 2-(4-(8-Bromo-2-oxo-3-(thiophen-2-ylsulfonyl)-2,3-dihydro-1H-imidazo[4,5-c]quinolin-1-yl)phenyl)-2-methylpropanenitrile], the IC50 in the assay with PANC 1 was > 3000 nM; in the assay on IL-6, 10000 to 30000 nM; in the assay on HCT116 it was > 3000 nM; with A549, 1000 to 3000 nM; in the assay on A2780, ≤ 1000 nM.
Take `CC(C)(C#N)c1ccc(-n2c(=O)n(S(=O)(=O)c3cccc(F)c3)c3cnc4ccc(Br)cc4c32)cc1` [Example 10, 2-(4-(8-Bromo-3-(3-fluorophenylsulfonyl)-2-oxo-2,3-dihydro-1H-imidazo[4,5-c]quinolin-1-yl)phenyl)-2-methylpropanenitrile]: the half-inhibitory concentration (IC50) was > 3000 nM with PANC 1; > 30000 nM in the assay with IL-6; 1000 to 3000 nM with HCT116; 1000 to 3000 nM in the assay with A549; 1000 to 3000 nM in the assay with A2780.
Regarding `Cc1ccc(S(=O)(=O)n2c(=O)n(-c3ccc(C(C)(C)C#N)cc3)c3c4cc(Br)ccc4ncc32)cc1F` [Example 5, 2-(4-(8-Bromo-3-(3-fluoro-4-methylphenylsulfonyl)-2-oxo-2,3-dihydro-1H-imidazo[4,5-c]quinolin-1-yl)phenyl)-2-methylpropanenitrile], the IC50 was 1000 to 3000 nM in the assay with PC3; > 3000 nM with OVCAR 3; 1000 to 3000 nM with U 87 MG; > 3000 nM in the assay with HCT116; > 3000 nM in the assay with U 373; 1000 to 3000 nM in the assay on A549. Further, the IC50 in the assay with H460 fell in the range of 1000 to 3000 nM.
Turning to `CC(C)(C#N)c1ccc(-n2c(=O)n(S(=O)(=O)c3cccc(C(F)(F)F)c3)c3cnc4ccc(Br)cc4c32)cc1` [Example 13, 2-(4-(8-Bromo-2-oxo-3-(3-(trifluoromethyl)phenylsulfonyl)-2,3-dihydro-1H-imidazo[4,5-c]quinolin-1-yl)phenyl)-2-methylpropanenitrile], the half-maximal inhibitory concentration (IC50) in the assay on PC3, in the assay on OVCAR 3, in the assay with U 87 MG, with HCT116, in the assay on U 373 and in the assay with A549 was > 3000 nM each time. Also, the IC50 with H460 was > 3000 nM. For the same molecule, the inhibition at 0.1 µM on PI3Kα kinase was in the range of 10 to 50%.
For the molecule `CC(C)(C#N)c1ccc(-n2c(=O)n(S(=O)(=O)c3cccc(Br)c3)c3cnc4ccc(Br)cc4c32)cc1` [Example 15, 2-(4-(8-Bromo-3-(3-bromophenylsulfonyl)-2-oxo-2,3-dihydro-1H-imidazo[4,5-c]quinolin-1-yl)phenyl)-2-methylpropanenitrile], the half-maximal inhibitory concentration (IC50) was > 3000 nM with PANC 1; 1000 to 10000 nM in the assay with IL-6; 1000 to 3000 nM with HCT116; > 3000 nM in the assay with A549; > 3000 nM in the assay on A2780.
For the molecule `CC(=O)n1c(=O)n(-c2ccc(C(C)(C)C#N)cc2)c2c3cc(Cl)ccc3ncc21` [Example 36, 2-(4-(3-Acetyl-8-chloro-2-oxo-2,3-dihydro-1H-imidazo[4,5-c]quinolin-1-yl)phenyl)-2-methylpropanenitrile], the half-inhibitory concentration (IC50) with PC3 was > 3000 nM; in the assay on OVCAR 3, > 3000 nM; in the assay on U 87 MG it was > 3000 nM; in the assay on HCT116, > 3000 nM; in the assay on U 373, > 3000 nM; in the assay on A549, 1000 to 3000 nM. Also, in the assay on H460, the IC50 is ≤ 1000 nM. For the same molecule, the inhibition at 0.1 µM against PI3Kα kinase was in the range of 10 to 50%.

Usually IC50 stands for the concentration needed to halve the response being measured. As a reminder, the inhibition is the drop in the measured response relative to a control, in per cent. A low value points to a response near the control.
